From ChEMBL document CHEMBL1275405, “Population pharmacokinetics of levofloxacin, gatifloxacin, and moxifloxacin in adults with pulmonary tuberculosis” (Antimicrob Agents Chemother, 2008)
In brackets after ≈: the same amount, converted by molar mass.

How the values were obtained:
[1] = Tmax in tuberculosis patient at […], po administered for 7 days by HPLC; type: ADME, organism-based; details: human, in vivo
clinical [2] = details: human, in vivo, po, 400 mg/day
Description: Tmax in tuberculosis patient at 400 mg/day, po administered for 7 days by HPLC

[3] = test system: Mycobacterium tuberculosis; assay: microbe, parasite or virus in culture; details: 168 h
Description: Antimicrobial activity against Mycobacterium tuberculosis infected in patient at 400 mg/day, po administered for 7 days by HPLC

[4] = Clearance in tuberculosis patient at 1000 mg/day, po administered for 7 days measured after 24 hrs by HPLC; type: ADME, organism-based; details: human, in vivo
[5] = test system: Mycobacterium tuberculosis; type: functional; details: 168 h
[6] = Ratio of fAUC in tuberculosis patient at 1000 mg/day, po administered for 7 days to MIC for Mycobacterium tuberculosis; type: functional
clinical [7] = details: human, in vivo, po, 1000 mg/day
Description: Cmax in tuberculosis patient at 1000 mg/day, po administered for 7 days by HPLC

| Structure (SMILES) | Tmax [1] | Tmax at 168 h (clinical [2]) | MIC [3] | CL/F [4] | MIC [5] | RatioAUC/MIC [6] | Cmax at 168 h (clinical [7]) |
| --- | --- | --- | --- | --- | --- | --- | --- |
| COc1c(N2CCNC(C)C2)c(F)cc2c(=O)c(C(=O)O)cn(C3CC3)c12 (centres undefined) [GATIFLOXACIN] | 8 h | 2 h | 0.2 µg/mL (≈ 0.533 µM) | – | – | – | – |
| C[C@H]1COc2c(N3CCN(C)CC3)c(F)cc3c(=O)c(C(=O)O)cn1c23.C[C@H]1COc2c(N3CCN(C)CC3)c(F)cc3c(=O)c(C(=O)O)cn1c23.O [LEVOFLOXACIN] | – | – | – | 79 mL/min | 0.5 µg/mL | 187.67 | 9000 ng/mL |
| COc1c(N2C[C@@H]3CCCN[C@@H]3C2)c(F)cc2c(=O)c(C(=O)O)cn(C3CC3)c12 [MOXIFLOXACIN] | – | 2 h | 0.5 µg/mL (≈ 1.25 µM) | – | – | – | – |
